Results taken from patent US3997506A (priority 1974, dated 1976).
Several values for one entry are separate records, joined by “and”; a condition that tells them apart may be missing. Equal values may be shown once. Read-outs that look alike come from different tables or passages of the source.

Legend:
leucocytes from rats [1] = settings: individual rat, 2 mg/kg oral, 2 mg/kg
human leucocytes [2] = test system: human leucocytes
leucocytes from rats [3] = settings: individual rat, 2 mg/kg oral
human leucocytes [4] = settings: 0.01 μg/ml to 10 μg/ml; up to 30 hours; no PHA
human leucocytes [5] = experiment: in vitro; format: cell-based
Description: (§1) The cytotoxicity has been investigated on human leucocytes by means of the viability test with Trypan blue.
(§2) a. In a first experimentation cultures of leucocytes of a voluntary […] were prepared and caused to undergo incubation with phytohemagglutinin (PHA) and with different concentrations of colchicine or of its derivative (C1 = 2.5 μg/ml of culture, C3 = 10 μg/ml, C5 = 30 μg/ml, C6 = 50 μg/ml). Leucocytes only containing PHA served as controls.
(§3) After 3, 42, 68 and 72 hours of incubation a sample of each culture was contacted by a drop of Trypan blue and laid on a slide of a microscope. Then took place the counting of the dead cells (those with assumed an […] colour) and of all the cells present on the slide in order to obtain the ratio of the number of dead cells to the total number of cells. The results expressed as a rate in per cent are shown in the accompanying table 8.
(§4) b. After the experimentation which has just been described, the study of cytotoxicity has been continued with two other samples of human leucocytes still by means of the viability test with Trypan blue.
(§5) C1 = 2.5 μg/ml of culture
(§6) C6 = 50 μg/ml of culture;
(§7) and for the carboxy-1-adamantane fraction to:
(§8) C3 = 4.5 μg/ml of culture
(§9) C6 = 22.5 μg/ml of culture.
(§10) Leucocytes only containing phytohemagglutinin and others containing phytohemagglutinin and 50 μl of methanol served as controls.
(§11) The percentage of dead cells was determined after different numbers of hours of incubation.

in vitro [6] = format: cell-based, human; settings: human, leucocytes, read-out: % of dead cells
Description: as §1, §2, §3, §4, §5, §6, §7, §8, §9, §10, §11

[7] = test system: oedema produced by crystals of urate in the hind paw of the rat; format: in vivo, Sprague Dawely female rats
leucocytes from rats [8] = settings: 6 hours after administration, 2 mg/kg oral
in vitro [9] = settings: human, leucocytes, % of dead cells (Average of 2 determinations), no PHA
leucocytes from rats [10] = format: in vivo, Sprague Dawley SIV 50 he-rats; settings: 2 mg/kg oral
[11] = 6 hours after administration, 2 mg/kg
[12] = first experimentation, C1 = 2.5 μg/ml
[13] = first experimentation, C3 = 10 μg/ml
[14] = first experimentation, C5 = 30 μg/ml
[15] = first experimentation, C6 = 50 μg/ml
[16] = 2 mg/kg, three subcutaneous injections, 6 h after urate

COc1cc2c(c(OC)c1OC)-c1ccc(OC)c(=O)cc1[C@@H](NC(C)=O)CC2 [Colchicine, colchicine, reference compound]
Leucocytes / mm^3 (leucocytes from rats [1]; experiment 1, 6 hours after administration): 9,500 / mm^3 and 7,900 / mm^3 and 7,750 / mm^3
Leucocytes / mm^3 (leucocytes from rats [1]; experiment 1, before administration): 16,600 / mm^3 and 10,450 / mm^3 and 10,000 / mm^3
Leucocytes / mm^3 (leucocytes from rats [1]; experiment 2, 6 hours after administration): 7,950 / mm^3 and 6,950 / mm^3 and 8,900 / mm^3
Leucocytes / mm^3 (leucocytes from rats [1]; experiment 2, before administration): 9,000 / mm^3 and 7,050 / mm^3 and 9,950 / mm^3
Leucocytes / mm^3 (leucocytes from rats [1]; experiment 3, 6 hours after administration): 9,750 / mm^3 and 13,750 / mm^3
Leucocytes / mm^3 (leucocytes from rats [1]; experiment 3, before administration): 10,750 / mm^3 and 8,500 / mm^3 and 15,250 / mm^3
number of leucocytes with increasing amounts (in words) (human leucocytes [2]; Table 9, 72 hours): decreases with increasing amounts of colchicine
Count of leucocytes after 72 hours (human leucocytes [2]; Table 9, C1 = 2.5 μg/ml, control 412,500): 457,000
Count of leucocytes after 72 hours (human leucocytes [2]; Table 9, C3 = 10 μg/ml, control 412,500): 420,000
Count of leucocytes after 72 hours (human leucocytes [2]; Table 9, C5 = 30 μg/ml, control 412,500): 397,000
Count of leucocytes after 72 hours (human leucocytes [2]; Table 9, C6 = 50 μg/ml, control 412,500): 270,000
Count of leucocytes after 72 hours (human leucocytes [2]; Table 11, Culture I, C3 = 10 μg/ml): 550,000
Count of leucocytes after 72 hours (human leucocytes [2]; Table 11, Culture I, C6 = 50 μg/ml): 610,000
Count of leucocytes after 72 hours (human leucocytes [2]; Table 11, Culture II, C1 = 2.5 μg/ml): 240,000
Count of leucocytes after 72 hours (human leucocytes [2]; Table 11, Culture II, C3 = 10 μg/ml): 295,000
Count of leucocytes after 72 hours (human leucocytes [2]; Table 11, Culture II, C5 = 30 μg/ml): 205,000
Count of leucocytes after 72 hours (human leucocytes [2]; Table 11, Culture II, C6 = 50 μg/ml (two values given)): 225,000 and 330,000
number of leucocytes in absence or presence of substance (in words) (human leucocytes [2]; Table 11, very approximative): remain substantially the same
Basophils (leucocytes from rats [3]; 6 hours after administration): 0
Eosinophils (leucocytes from rats [3]; 6 hours after administration): 0
Lymphocytes (leucocytes from rats [3]; [11]): 92 and 81 and 84
Neutrophils with non-segmented nucleus (leucocytes from rats [3]; [11]): 1 and 3
Neutrophils with segmented nucleus (leucocytes from rats [3]; [11]): 6 and 16 and 17
Basophils (leucocytes from rats [3]; before administration): 0
Monocytes (leucocytes from rats [3]; before administration): 2
Lymphocytes (leucocytes from rats [3]; before administration, 2 mg/kg): 94 and 83 and 87
cytotoxicity (in words) (human leucocytes [4]): no cytotoxicity is detectable
cytotoxicity, cultures I and II (in words) (human leucocytes [5]; Cultures I and II): practically identical with that due to the methanol
cytotoxicity, colchicine versus derivative (in words) (human leucocytes [5]; [12]): substantially the same
cytotoxicity at 4 h (in vitro [6]; Culture I, C3 = 10 μg/ml): 6%
cytotoxicity at 4 h (in vitro [6]; Culture I, C6 = 50 μg/ml): 9%
cytotoxicity at 22 h (in vitro [6]; Culture I, C3 = 10 μg/ml): 5%
cytotoxicity at 22 h (in vitro [6]; Culture I, C6 = 50 μg/ml): 7%
cytotoxicity at 46 h (in vitro [6]; Culture I, C3 = 10 μg/ml): 24%
cytotoxicity at 46 h (in vitro [6]; Culture I, C6 = 50 μg/ml): 19%
cytotoxicity at 76 h (in vitro [6]; Culture I, C3 = 10 μg/ml): 24%
cytotoxicity at 76 h (in vitro [6]; Culture I, C6 = 50 μg/ml): 23%
cytotoxicity at 23 h (in vitro [6]; Culture II, C1 = 2.5 μg/ml): 3%
cytotoxicity at 23 h (in vitro [6]; Culture II, C3 = 10 μg/ml): 4%
cytotoxicity at 23 h (in vitro [6]; Culture II, C5 = 30 μg/ml): 5%
cytotoxicity at 46 h (in vitro [6]; Culture II, C1 = 2.5 μg/ml): 11%
cytotoxicity at 46 h (in vitro [6]; Culture II, C3 = 10 μg/ml): 8%
cytotoxicity at 46 h (in vitro [6]; Culture II, C5 = 30 μg/ml): 11%
cytotoxicity at 72 h (in vitro [6]; Culture II, C1 = 2.5 μg/ml): 13%
cytotoxicity at 72 h (in vitro [6]; Culture II, C3 = 10 μg/ml): 14%
cytotoxicity at 72 h (in vitro [6]; Culture II, C5 = 30 μg/ml): 18%
cytotoxicity at 3 h (in vitro [6]; [12]): 1%
cytotoxicity at 3 h (in vitro [6]; [13]): 1%
cytotoxicity at 3 h (in vitro [6]; [14]): 0%
cytotoxicity at 3 h (in vitro [6]; [15]): 0%
cytotoxicity at 42 h (in vitro [6]; [12]): 3%
cytotoxicity at 42 h (in vitro [6]; [13]): 2%
cytotoxicity at 42 h (in vitro [6]; [14]): 10%
cytotoxicity at 42 h (in vitro [6]; [15]): 2%
cytotoxicity at 68 h (in vitro [6]; [12]): 6%
cytotoxicity at 68 h (in vitro [6]; [13]): 9%
cytotoxicity at 68 h (in vitro [6]; [14]): 9%
cytotoxicity at 68 h (in vitro [6]; [15]): 21%
cytotoxicity at 72 h (in vitro [6]; [12]): 7%
cytotoxicity at 72 h (in vitro [6]; [14]): 18%
cytotoxicity at 72 h (in vitro [6]; [15]): 24%
% of inhibition of edema [7, 16]: 48%
Difference in weight between left and right leg (Average ± standard deviation of mean term) [7, 16]: 0.152 ± 0.019 g
protection against the oedema produced by crystals of urate (in words) ([7]; colchicine 2 mg/kg, derivative 6 mg/kg): significant protection
cytotoxic effect (in words) (leucocytes from rats [8]): no cytotoxic effect has been noticed
% of dead cells (leucocytes from rats [8]; individual rat, 2 mg/kg, 360 min): 1% and 2% and 0%
cytotoxicity at 6 h (in vitro [9]; C1 = 0.01 μg/ml): 1%
cytotoxicity at 6 h (in vitro [9]; C2 = 0.1 μg/ml): 0%
cytotoxicity at 6 h (in vitro [9]; C3 = 0.5 μg/ml): 2%
cytotoxicity at 6 h (in vitro [9]; C4 = 1.0 μg/ml): 1%
cytotoxicity at 6 h (in vitro [9]; C5 = 2.5 μg/ml): 1%
cytotoxicity at 6 h (in vitro [9]; C6 = 10.0 μg/ml): 1%
cytotoxicity at 30 h (in vitro [9]; C1 = 0.01 μg/ml): 55%
cytotoxicity at 30 h (in vitro [9]; C2 = 0.1 μg/ml): 68%
cytotoxicity at 30 h (in vitro [9]; C3 = 0.5 μg/ml): 54%
cytotoxicity at 30 h (in vitro [9]; C4 = 1.0 μg/ml): 59%
cytotoxicity at 30 h (in vitro [9]; C5 = 2.5 μg/ml): 60%
cytotoxicity at 30 h (in vitro [9]; C6 = 10.0 μg/ml): 46%
cytotoxicity at 48 h (in vitro [9]; C1 = 0.01 μg/ml): 93%
cytotoxicity at 48 h (in vitro [9]; C2 = 0.1 μg/ml): 93%
cytotoxicity at 48 h (in vitro [9]; C3 = 0.5 μg/ml): 91%
cytotoxicity at 48 h (in vitro [9]; C4 = 1.0 μg/ml): 95%
cytotoxicity at 48 h (in vitro [9]; C5 = 2.5 μg/ml): 92%
cytotoxicity at 48 h (in vitro [9]; C6 = 10.0 μg/ml): 92%
cpm / number of lymphocytes, mean (leucocytes from rats [10]; 6 hours after administration, group mean, factor and spread printed on following lines): 2.72 × 10^-^2 cpm/number of lymphoc
Number of lymphocytes/culture (leucocytes from rats [10]; 6 hours after administration, individual rat, 2 mg/kg): 148,200 lymphocytes/culture and 108,240 lymphocytes/culture
cpm / number of lymphocytes (immunity response) (leucocytes from rats [10]; 6 hours after administration, individual rat, factor × 10^-^2, 2 mg/kg): 5.03 × 10^-^2 cpm/number of lymphoc and 0.40 × 10^-^2 cpm/number of lymphoc
Number of lymphocytes/culture (leucocytes from rats [10]; before administration, individual rat, 2 mg/kg): 103,960 lymphocytes/culture and 163,400 lymphocytes/culture and 156,400 lymphocytes/culture
